One series has as its target T1, 11 β-HSD type 1 (Rattus norvegicus, UniProt P16232).
T1 construct: Both the kidneys and livers were homogenised on ice in PBS- sucrose buffer; tissue Harlan Olac, Bicester, Oxon, UK (rats); host or cells: rat liver homogenate supernatant (Wistar rat)
As to the kind of experiment: biochemical. The format is biochemical. The settings on record: rat liver cytosol 25 μL, 90 min, 37° C., cortisone (E) to cortisol (F), vs control without inhibitor, means n=2; for inhibition at 10 µM: read-out: % […]→F ± SD, inhibitor 10 μM, read-out: % INHIBITION E→F ± SD; for % INHIBITION E→F ± SD: inhibitor 10 μM.

For another series, the target named is T2, 11 β-HSD type 2 (Rattus norvegicus, UniProt P50233).
T2 construct: Both the kidneys and livers were homogenised on ice in PBS- sucrose buffer; tissue Harlan Olac, Bicester, Oxon, UK (rats); host or cells: rat kidney homogenate supernatant (Wistar rat)
T2 sequence (P50233 1-400): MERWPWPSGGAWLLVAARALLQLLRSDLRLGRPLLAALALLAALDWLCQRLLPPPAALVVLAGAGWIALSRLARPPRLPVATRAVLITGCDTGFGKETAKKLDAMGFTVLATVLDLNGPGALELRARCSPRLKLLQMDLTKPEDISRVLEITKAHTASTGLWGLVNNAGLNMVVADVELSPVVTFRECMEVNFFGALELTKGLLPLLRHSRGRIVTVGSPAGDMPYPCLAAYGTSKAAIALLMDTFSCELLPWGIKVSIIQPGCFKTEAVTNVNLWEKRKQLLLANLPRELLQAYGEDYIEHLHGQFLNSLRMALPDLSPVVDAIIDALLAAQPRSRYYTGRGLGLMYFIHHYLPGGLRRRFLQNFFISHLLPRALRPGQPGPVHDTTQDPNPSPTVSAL
As to the kind of experiment: biochemical. Particulars: for inhibition at 10 µM: read-out: % […]→E ± SD, inhibitor 10 μM, read-out: % INHIBITION F→E ± SD; for inhibition at 10 µM / % INHIBITION F→E ± SD: rat kidney cytosol 150 μL, 60 min, 37° C., cortisol (F) to cortisone (E), vs control without inhibitor, means n=2. Here is the method: Enzymes—Rat livers and rat kidneys were obtained from normal Wistar rats (Harlan Olac, Bicester, Oxon,UK). Both the kidneys and livers were homogenised on ice in PBS- sucrose buffer (1 g/10 ml) using an Ultra-Turrax. After the livers and kidneys were homogenised the homogenate was centrifuged for five minutes at 4000 rpm. The supernatant obtained was removed and stored in glass vials at −20° C. The amount of protein per μl of rat liver and kidney cytosol was determined using the Bradford method.
The same procedure was used for the 11 β-HSD type 2 assay, the conversion F to E, to determine the amount of rat kidney to be used and the incubation time.
In these assays the influence of different inhibitors on the 11 β-HSD activity both in reductive (type 1) and oxidative (type 2) directions were assessed. In the reductive direction E is the substrate and F the product and visa versa in the case of oxidation. The method described here is for the oxidative direction.
The substrate solution contained about 50,000 cpm/ml ^3H—F in PBS-sucrose and 0.5 pM F. 1 ml of the substrate solution was added to each tube, the inhibitors were also added, at a 10 μM concentration, to each tube except to the “control” and “blank” tubes. 150 μL was added to all tubes except to the blanks, this was done to correct for the amount of ^3H[…]. The tubes were incubated for 60 minutes in a mechanically shaken water bath at 37° C. […] After incubation 50 μL of recovery was added to correct for the losses made in the next steps, containing 5000 cpm/50 μL of ^14C-E and 50 μg/50 μL of unlabelled E (to visualise the spot on the TLC-plate). The aqueous mixture was then extracted with 4 ml of ether (2×30 sec cycle, vortex mix). After freezing the aqueous phase, the ether (upper) layer was decanted into smaller tubes and evaporated at 45° C. until completely dry. The residue was then re-dissolved in 6 drops of ether and transferred to a TLC-plate. The TLC-plate was developed in chloroform:methanol (9:1 v/v) solvent system, the TLC-plate ran for about 90 minutes until the solvent front had moved about 18 cm. The position of the product E was visualised under UV-light and cut out from the TLC-plate and put into scintillation vials. Radioactivity was eluted over 5 minutes with 0.5 ml methanol. 0.5 ml of PBS- sucrose and 10 ml of Ecoscint were then added and vortex mixed before counting in the scintillation counter. Before counting the samples, two total activity vials were prepared. These contained 0.5 ml of the substrate solution, 50 μL of the recovery, 0.5 ml of methanol and 10 ml of Ecoscint. These two total activity vials were needed to determine the amount of ^14C-E and ^3H—F added in the beginning to make the calculations.
To look at the percentage of inhibition four different concentrations, 1, 5, 10 and 20 μM, were used. The method for both the rat liver, type 1 the reductive, and rat kidney, type 2 the oxidative, stay the same throughout the entire experiment.
In this experiment the influence of different inhibitors on the conversion E to F and F to E was determined. The reason why inhibition in both directions was examined was to make a comparison between the inhibitors and which type of 11 β-HSD they inhibit more. Thirty-two compounds were screened for their ability to inhibit 11 β-HSD type 1 (E to F) and type 2 (F to E). […] The percent of inhibition was calculated as the percentage of decrease in radio labelled ^3H-E and ^3H—F of product formed, compared with the control activity (the tubes without an inhibitor in it). All the results calculated are means, n=2.

Values joined by “and” are separate entries in the source; they are usually repeats but may differ in a detail not shown here. Identical values can stand only once. Counter-ions that a name gives are not always drawn.

The term melting point denotes the temperature of the solid-liquid transition.

T1 sequence (P16232 whole entry): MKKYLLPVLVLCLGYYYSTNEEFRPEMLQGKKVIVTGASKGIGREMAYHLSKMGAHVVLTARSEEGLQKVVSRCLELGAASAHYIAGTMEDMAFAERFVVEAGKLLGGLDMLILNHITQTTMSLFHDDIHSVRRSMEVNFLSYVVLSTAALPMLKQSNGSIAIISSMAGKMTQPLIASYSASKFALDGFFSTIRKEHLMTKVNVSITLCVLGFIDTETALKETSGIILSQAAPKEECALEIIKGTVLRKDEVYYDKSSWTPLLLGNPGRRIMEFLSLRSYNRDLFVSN

Molecule `CC1(C)C2CC[C@]3(C)C(C(=O)C=C4[C@@H]5C[C@@](C)(C(=O)OCCc6ccccc6)CC[C@]5(C)CC[C@]43C)[C@@]2(C)CC[C@@H]1O` (some centres unmarked) had a melting point of 171 to 172 °C.
Turning to `COC(=O)[C@@]1(C)CC[C@]2(C)CC[C@]3(C)C(=CCC4[C@@]5(C)CCC(=O)C(C)(C)C5CC[C@]43C)[C@@H]2C1` (some centres unmarked), the melting point fell in the range of 234 to 236 °C.
`CC1(C)C2CC[C@]3(C)C(CC=C4[C@@H]5C[C@@](C)(C(=O)OCCc6ccccc6)CC[C@]5(C)CC[C@]43C)[C@@]2(C)CC[C@@H]1O` (some centres unmarked) registered a melting point of 153 to 155 °C.
Still for that read-out and setting: under `CC1(C)C2CC[C@]3(C)C(C(=O)C=C4[C@@H]5C[C@@](C)(C(=O)OCCCc6ccccc6)CC[C@]5(C)CC[C@]43C)[C@@]2(C)CC[C@H]1O` (some centres unmarked) stands 114 to 116 °C; under `CC1(C)C2CC[C@]3(C)C(CC=C4[C@@H]5C[C@@](C)(C(=O)OCc6ccccc6)CC[C@]5(C)CC[C@]43C)[C@@]2(C)CC[C@H]1O` (some centres unmarked), 151 to 152 °C; under `CC1(C)C2CC[C@]3(C)C(CC=C4[C@@H]5C[C@@](C)(C(=O)OCC6CCCCC6)CC[C@]5(C)CC[C@]43C)[C@@]2(C)CC[C@@H]1O` (some centres unmarked), 133 to 134 °C.
Still for that read-out and setting: then `CC(C)(C)OC(=O)[C@@]1(C)CC[C@]2(C)CC[C@]3(C)C(=CC(=O)C4[C@@]5(C)CC[C@H](O)C(C)(C)C5CC[C@]43C)[C@@H]2C1` (some centres unmarked), with 171 to 174 °C.
As for `CC(C)OC(=O)[C@@]1(C)CC[C@]2(C)CC[C@]3(C)C(=CC(=O)C4[C@@]5(C)CC[C@H](O)C(C)(C)C5CC[C@]43C)[C@@H]2C1` (some centres unmarked), the melting point was 271 to 273 °C (dec.).
Turning to `CC1(C(=O)O)CCC2(C)CCC3C(=CC(=O)C4C3(C)CCC3C(C)(C)C(OC(=O)CCC(=O)O)CCC34C)C2C1` (centres unmarked) [Carbenoxalone, Carbenoxalone (disodium salt), reference compound], the inhibition at 10 µM on 11 β-HSD type 1 stood at 52.2 ± 4.8%; on 11 β-HSD type 2, 100%.
On the same counts, the results for `CC1(C)C2CC[C@]3(C)[C@H](C(=O)C=C4[C@@H]5C[C@@](C)(C(=O)NCCN6CCOCC6)CC[C@]5(C)CC[C@]43C)[C@@]2(C)CC[C@@H]1O` (some centres unmarked) [STX 372, 18-Glycyrrhetinic Acid (2-morpholin-4-yl-ethyl)-amide] are 19.4 ± 7.81% and 65.8 ± 20.9%.
Turning to `COC(=O)[C@@]1(C)CC[C@]2(C)CC[C@]3(C)C(=CC(=O)C4[C@@]5(C)CC[C@H](O)C(C)(C)C5CC[C@]43C)[C@@H]2C1` (stereo partly drawn) [STX195, 3β-Hydroxy-11-oxo-18β-glycyrrhetinic acid methyl ester], the inhibition at 10 µM on 11 β-HSD type 1 came to 85.4 ± 2.29%; at 11 β-HSD type 2 it was 105 ± 1.55%.
The molecule `COC(=O)[C@@]1(C)CC[C@]2(C)CC[C@]3(C)C(=CCC4[C@@]5(C)CC[C@H](O)C(C)(C)C5CC[C@]43C)[C@@H]2C1` (some centres unmarked) [DG 383 B] displayed a melting point of 291 to 293 °C.
Consider `C[C@H](CCC(=O)O)[C@H]1CC[C@H]2[C@@H]3CC[C@@H]4C[C@H](O)CC[C@]4(C)[C@H]3C[C@H](O)[C@]12C` [Deoxycholic acid, reference compound], for which the inhibition at 10 µM is 27.6 ± 7.85% at 11 β-HSD type 1 and -1.1 ± 8.27% at 11 β-HSD type 2. Further, the “stimulation of 11 β-HSD type 2 (F to E)” value on 11 β-HSD type 2 (inhibitor 10 μM, rat kidney, printed as stimulation, not inhibition) amounted to 1%.
As to `CC1(C)C2CC[C@]3(C)C([C@H](O)C=C4[C@@H]5C[C@@](C)(CO)CC[C@]5(C)CC[C@]43C)[C@@]2(C)CC[C@@H]1O` (some centres unmarked) [STX 351], the inhibition at 10 µM came to 70 ± 6.39% on 11 β-HSD type 1 and 94.41 ± 0.63% on 11 β-HSD type 2.
Regarding `CC(C)(C)OC(=O)[C@@]1(C)CC[C@]2(C)CC[C@]3(C)C(=CC(=O)C4[C@@]5(C)CC[C@H](O)C(C)(C)C5CC[C@]43C)[C@@H]2C1` (some centres unmarked) [STX 298], the inhibition at 10 µM on 11 β-HSD type 1 came to 50.6 ± 4.43%; on 11 β-HSD type 2, 22.6 ± 12.9%.
In the case of `CCO[C@H]1CC[C@@]2(C)C(CC[C@]3(C)C2C(=O)C=C2[C@@H]4C[C@@](C)(C(=O)O)CC[C@]4(C)CC[C@]23C)C1(C)C` (stereo partly drawn) [STX196a, 3β-Ethoxy-11-oxo-18β-glycerrhetinic acid], the inhibition at 10 µM at 11 β-HSD type 1 was found to be 55 ± 0.022%; on 11 β-HSD type 2 it was 93.9 ± 1.77%.
In the case of `CC1(C)CC[C@]2(C(=O)O)CC[C@]3(C)C(=CC[C@@H]4[C@@]5(C)CCC(=O)C(C)(C)[C@@H]5CC[C@]43C)[C@@H]2C1` [BLE99006, 3-Oxo-oleanoic acid], on 11 β-HSD type 1 (10 µM), the “% INHIBITION E→F ± SD” value is 22% and 22.2 ± 0.354%. Also, at 11 β-HSD type 2 (inhibitor 10 μM), the “% INHIBITION F→E ± SD” value amounted to 45.6 ± 11.030%.
The molecule `CC(C)OC(=O)[C@@]1(C)CC[C@]2(C)CC[C@]3(C)C(=CCC4[C@@]5(C)CC[C@H](O)C(C)(C)C5CC[C@]43C)[C@@H]2C1` (some centres unmarked) returned a melting point of 201 to 203 °C.
Regarding `CC1(C)C2CC[C@]3(C)C(CC=C4[C@@H]5C[C@@](C)(C(=O)OC6CCCCC6)CC[C@]5(C)CC[C@]43C)[C@@]2(C)CC[C@@H]1O` (some centres unmarked), the melting point is 163 to 166 °C.
Regarding `COC(=O)[C@@]1(C)CC[C@]2(C)CC[C@]3(C)C(=CCC4[C@@]5(C)CC[C@H](O)C(C)(C)C5CC[C@]43C)[C@@H]2C1` (some centres unmarked) [DGS01092 B], the melting point lay within 135 to 137 °C.
Consider “Deoxycorticosterone [reference compound]”, for which the “% INHIBITION E→F ± SD” value at 11 β-HSD type 1 was determined as 70.2 ± 1.655%. Moreover, the “% INHIBITION F→E ± SD” value at 11 β-HSD type 2 (inhibitor 10 μM) is reported as 53.3 ± 1.273%.
For the molecule `C[C@]12CCC(=O)C=C1CCC1C2C(O)C[C@]2(C)C(=O)CCC12` (stereo partly drawn) [11β-OH-Androstenedione, reference compound], the inhibition at 10 µM at 11 β-HSD type 1 amounted to 55.2 ± 0.26%; at 11 β-HSD type 2, 40.9 ± 4.67%.
Regarding `CC(=O)C1CCC2C3CCC4=CC(=O)CC[C@]4(C)C3CC[C@]12C` (some centres unmarked) [Progesterone, reference compound], the inhibition at 10 µM at 11 β-HSD type 1 was found to be 73%; at 11 β-HSD type 2, 68.5 ± 0.707%.
As for `CC1(C)C2CC[C@]3(C)C(C(=O)C=C4[C@@H]5C[C@@](C)(CO)CC[C@]5(C)CC[C@]43C)[C@@]2(C)CC[C@@H]1O` (some centres unmarked) [STX 349], the inhibition at 10 µM was 89.7 ± 4.9% at 11 β-HSD type 1 and 100 ± 0.49% on 11 β-HSD type 2.
For the molecule `COC(=O)[C@@]1(C)CC[C@]2(C)CC[C@]3(C)C(=CC(=O)[C@@H]4[C@@]5(C)CC[C@H](OCc6ccc(C(C)(C)C)cc6)C(C)(C)C5CC[C@]43C)[C@@H]2C1` (some centres unmarked) [STX 360], the inhibition at 10 µM turned out to be 14.7 ± 2.4% at 11 β-HSD type 1 and 26.4 ± 11.6% at 11 β-HSD type 2.
With `CCOC(=O)[C@@]1(C)CC[C@]2(C)CC[C@]3(C)C(=CC(=O)C4[C@@]5(C)CC[C@H](OCc6ccccc6)C(C)(C)C5CC[C@]43C)[C@@H]2C1` (some centres unmarked) [STX 297], the inhibition at 10 µM at 11 β-HSD type 1 was 34.3 ± 8.26%; on 11 β-HSD type 2, 58.7 ± 10.4%.
